Source: patent US20240199692A1 (priority 2019, published 2024)
*1 amine or outer side, *2 acyl side, *3 side chain or, on linkers, in order; H or OH if unused. Where a SMILES comes first, the peptide text is derived from it. [ ]: non-standard residue; d: D form. The star is where a group is joined. Phenylsulfonyl(4-anisamido) = COc1ccc(C(=O)Nc2ccc(S(=O)(=O)*)cc2)cc1; Benzoyl(4-(4-EtNHCO-PhO)) = CCNC(=O)c1ccc(Oc2ccc(C(=O)*)cc2)cc1; Benzoyl(4-OPh(4-CONH2)) = NC(=O)c1ccc(Oc2ccc(C(=O)*)cc2)cc1; X14 = CN(C)C(=O)c1ccc(C(=O)Nc2ccc(S(=O)(=O)*)cc2)cc1; X1 = O=C(Nc1ccc(S(=O)(=O)*)cc1)c1ccc(OC(F)(F)F)cc1; X4 = NC(=O)CCCCNC(=O)c1ccc(Oc2ccc(C(=O)*)cc2)cc1; X19 = O=C(O)CNC(=O)c1ccc(Oc2ccc(C(=O)*)cc2)cc1; X6 = NCCCCNC(=O)c1ccc(Oc2ccc(C(=O)*)cc2)cc1; Benzoyl(4-OPh) = O=C(c1ccc(Oc2ccccc2)cc1)*; d(γGlu) = O=C(O)[C@@H](CCC(=O)[*:2])N[*:1]; d(βAsp) = O=C(O)[C@@H](CC(=O)[*:2])N[*:1]; X13 = Cc1ccc(C#Cc2ccc(S(=O)(=O)*)s2)cc1; X5 = O=S(=O)(c1ccc(-c2ccc(CO)cc2)cc1)*; εLys = N[C@@H](CCCCN[*:1])C(=O)[*:2]; NMeI = CC[C@H](C)[C@H](NC)C(=O)O; NMeT = CN[C@H](C(=O)O)[C@@H](C)O; NMeE = CN[C@@H](CCC(=O)O)C(=O)O; NMeD = CN[C@@H](CC(=O)O)C(=O)O; NMeN = CN[C@@H](CC(N)=O)C(=O)O; Dap(Me) = CNC[C@H](N)C(=O)O; NMeM = CN[C@@H](CCSC)C(=O)O; NMeV = CN[C@H](C(=O)O)C(C)C; β3hP = O=C(O)C[C@@H]1CCCN1; Orn = NCCC[C@H](N)C(=O)O; Aze = O=C(O)[C@@H]1CCN1; Dab = NCC[C@H](N)C(=O)O; Dap = NC[C@H](N)C(=O)O; Ahx = NCCCCCC(=O)O; Ava = NCCCCC(=O)O; GABA = NCCCC(=O)O

target: T1, MMP2 (Homo sapiens, UniProt P08253); assay: Inhibitory effects on human MMP2 (Method 1), enzyme assay with MOCAc-Pro-Leu-Gly-Leu-A2pr(Dnp)-Ala-Arg-NH2 substrate, 96-well; assay type: biochemical; conditions: Test Example No. 1-1 (Method 1, 96-well microplate); read-out: Human MMP2, IC50
T1 sequence (P08253 110-660): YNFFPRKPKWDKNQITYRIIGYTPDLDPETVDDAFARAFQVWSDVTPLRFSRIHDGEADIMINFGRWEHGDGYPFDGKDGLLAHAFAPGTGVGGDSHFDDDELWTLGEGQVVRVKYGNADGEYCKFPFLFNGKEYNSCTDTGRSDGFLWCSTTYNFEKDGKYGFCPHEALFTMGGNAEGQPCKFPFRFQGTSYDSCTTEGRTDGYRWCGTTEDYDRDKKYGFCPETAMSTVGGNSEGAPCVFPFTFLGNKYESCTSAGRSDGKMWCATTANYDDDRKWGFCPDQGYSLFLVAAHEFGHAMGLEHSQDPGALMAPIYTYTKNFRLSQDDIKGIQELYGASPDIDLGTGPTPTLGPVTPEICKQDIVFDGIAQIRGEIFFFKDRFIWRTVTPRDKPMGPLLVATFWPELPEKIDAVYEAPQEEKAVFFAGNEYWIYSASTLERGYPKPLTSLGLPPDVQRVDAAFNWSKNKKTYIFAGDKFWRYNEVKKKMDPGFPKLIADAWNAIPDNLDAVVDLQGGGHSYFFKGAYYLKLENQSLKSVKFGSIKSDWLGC
Experimental: In a reaction solution [50 mmol/L Tris-HCl (pH 7.5), 150 mmol/L NaCl, 10 mmol/L CaCl2, 0.05% Brij L23], 100 μg/mL human recombinant MMP2 enzyme and 1 mmol/L 4-Aminophenylmercuric acetate were mixed together, and reacted at 37° C. for 60 minutes. The human MMP2 activated through the reaction was poured into a 96-well microplate to reach a final concentration of 0.7 or 7 ng/mL.

Compound | IC50
CC[C@H](C)[C@@H](C(=O)N1CCC[C@H]1CC(N)=O)N(C)C(=O)[C@H](CC(C)C)NC(=O)[C@H](CNC)NC(=O)[C@H](CC(=O)O)NC(=O)[C@H](CC(N)=O)N(C)C(=O)CCCNC(=O)c1ccc(Oc2ccccc2)cc1 [Compound 154] ({Benzoyl(4-OPh)-GABA}-[NMeN]D[Dap(Me)]L[NMeI][β3hP]-NH2; N-terminus assumed) | 0.44 nM
CC[C@H](C)[C@@H](C(=O)N1CCC[C@H]1CC(N)=O)N(C)C(=O)[C@H](CC(C)C)NC(=O)[C@H](CN)NC(=O)[C@H](CC(=O)O)NC(=O)[C@@H]1CCN1C(=O)CCCNC(=O)c1ccc(Oc2ccccc2)cc1 [Compound 132] ({Benzoyl(4-OPh)-GABA}-[Aze]D[Dap]L[NMeI][β3hP]-NH2; N-terminus assumed) | 0.43 nM
CC[C@H](C)[C@@H](C(=O)N1CCC[C@H]1C(N)=O)N(C)C(=O)[C@H](CC(C)C)NC(=O)[C@H](C)NC(=O)[C@H](CC(=O)O)NC(=O)[C@H](CC(=O)O)N(C)C(=O)CCCNC(=O)c1ccc(Oc2ccccc2)cc1 [Compound 125] ({Benzoyl(4-OPh)-GABA}-[NMeD]DAL[NMeI]P-NH2) | 0.47 nM
CC(C)C[C@H](NC(=O)[C@H](CCN)NC(=O)[C@H](CC(=O)O)NC(=O)[C@H](CCC(=O)O)NC(=O)CCCNC(=O)c1ccc(Oc2ccccc2)cc1)C(=O)N(C)[C@@H](CCC(=O)O)C(=O)N1CCC[C@H]1CC(N)=O [Compound 144] ({Benzoyl(4-OPh)-GABA}-ED[Dab]L[NMeE][β3hP]-NH2; N-terminus assumed) | 0.26 nM
CC[C@H](C)[C@@H](C(=O)N1CCC[C@H]1CC(N)=O)N(C)C(=O)[C@H](CC(C)C)NC(=O)[C@H](CCN)NC(=O)[C@H](CC(=O)O)NC(=O)[C@H](CCCN)NC(=O)CCCNC(=O)c1ccc(Oc2ccccc2)cc1 [Compound 148] ({Benzoyl(4-OPh)-GABA}-[Orn]D[Dab]L[NMeI][β3hP]-NH2; N-terminus assumed) | 0.48 nM
CC(C)C[C@H](NC(=O)[C@H](CCN)NC(=O)[C@H](CC(=O)O)NC(=O)[C@H](CC(N)=O)N(C)C(=O)CCCNC(=O)c1ccc(Oc2ccccc2)cc1)C(=O)N(C)[C@@H](CCC(=O)O)C(=O)N1CCC[C@H]1CC(N)=O [Compound 112] ({Benzoyl(4-OPh)-GABA}-[NMeN]D[Dab]L[NMeE][β3hP]-NH2; N-terminus assumed) | 0.55 nM
CC[C@H](C)[C@@H](C(=O)N1CCC[C@H]1C(N)=O)N(C)C(=O)[C@H](CC(C)C)NC(=O)[C@H](C)NC(=O)[C@H](CC(=O)O)NC(=O)[C@H]([C@@H](C)O)N(C)C(=O)CCCNC(=O)c1ccc(Oc2ccccc2)cc1 [Compound 131] ({Benzoyl(4-OPh)-GABA}-[NMeT]DAL[NMeI]P-NH2; N-terminus assumed) | 0.36 nM
CC[C@H](C)[C@@H](C(=O)N1CCC[C@H]1C(N)=O)N(C)C(=O)[C@H](CC(C)C)NC(=O)[C@H](C)NC(=O)[C@H](CC(=O)O)NC(=O)[C@H](C(C)C)N(C)C(=O)CCCNC(=O)c1ccc(Oc2ccccc2)cc1 [Compound 119] ({Benzoyl(4-OPh)-GABA}-[NMeV]DAL[NMeI]P-NH2; N-terminus assumed) | 0.17 nM
CC(C)C[C@H](NC(=O)[C@H](CCN)NC(=O)[C@H](CC(=O)O)NC(=O)[C@H](CCCN)NC(=O)CCCNC(=O)c1ccc(Oc2ccccc2)cc1)C(=O)N(C)[C@@H](CCC(=O)O)C(=O)N1CCC[C@H]1CC(N)=O [Compound 145] ({Benzoyl(4-OPh)-GABA}-[Orn]D[Dab]L[NMeE][β3hP]-NH2; N-terminus assumed) | 0.72 nM

Other lines, results leading:

IC50 | Compound
5.1 nM | CCNC(=O)c1ccc(Oc2ccc(C(=O)NCCCCCC(=O)N[C@@H](CCCNC(=N)N)C(=O)N[C@@H](CC(=O)O)C(=O)N[C@@H](CCN)C(=O)N[C@@H](CC(C)C)C(=O)N(C)[C@H](C(=O)N3CCC[C@H]3CC(N)=O)[C@@H](C)CC)cc2)cc1 [Compound 198] ({Benzoyl(4-(4-EtNHCO-PhO))-Ahx}-RD[Dab]L[NMeI][β3hP]-NH2; N-terminus assumed)
0.48 nM | CC(C)C[C@H](NC(=O)[C@H](CN)NC(=O)C[C@@H](NS(=O)(=O)c1ccc(-c2ccc(CO)cc2)cc1)C(=O)O)C(=O)N(C)[C@@H](CCC(=O)O)C(=O)N1CCC[C@H]1CC(N)=O [Compound 637] ({X5-d(βAsp)}-[Dap]L[NMeE][β3hP]-NH2; N-terminus assumed)
0.89 nM | CC[C@H](C)[C@@H](C(=O)NCCCC[C@H](N)C(N)=O)N(C)C(=O)[C@H](CC(C)C)NC(=O)[C@H](CCN)NC(=O)[C@H](CC(=O)O)NC(=O)[C@H](NC(=O)[C@@H](N)CCCNC(=O)c1ccc(Oc2ccc(C(N)=O)cc2)cc1)[C@H](C)O [Compound 554] (H-[Orn](Benzoyl(4-OPh(4-CONH2)))[dT]D[Dab]L[NMeI][εLys]-NH2)
0.12 nM | CSCC[C@@H](C(=O)N1CCC[C@H]1C(N)=O)N(C)C(=O)[C@H](CC(C)C)NC(=O)[C@H](C)NC(=O)[C@H](CC(=O)O)NC(=O)[C@H](CC(N)=O)NC(=O)CCCNS(=O)(=O)c1ccc(C#Cc2ccc(C)cc2)s1 [Compound 588] ({X13-GABA}-NDAL[NMeM]P-NH2; N-terminus assumed)
3.1 nM | CC(C)C[C@H](NC(=O)[C@H](CCN)NC(=O)[C@H](CC(=O)O)NC(=O)[C@H](CC(N)=O)NC(=O)CCCCNC(=O)c1ccc(Oc2ccc(C(=O)NCCCCN)cc2)cc1)C(=O)N(C)[C@@H](CCC(=O)O)C(=O)N1CCC[C@H]1CC(N)=O [Compound 181] ({X6-Ava}-ND[Dab]L[NMeE][β3hP]-NH2; N-terminus assumed)
1.4 nM | CC[C@H](C)[C@@H](C(=O)N1CCC[C@H]1CC(N)=O)N(C)C(=O)[C@H](CC(C)C)NC(=O)[C@H](CCN)NC(=O)[C@H](CC(=O)O)NC(=O)[C@H](CCC(=O)O)NC(=O)CCCCNC(=O)c1ccc(Oc2ccc(C(=O)NCCCCC(N)=O)cc2)cc1 [Compound 201] ({X4-Ava}-ED[Dab]L[NMeI][β3hP]-NH2; N-terminus assumed)
1.5 nM | CC(C)C[C@H](NC(=O)[C@H](CN)NC(=O)C[C@@H](NS(=O)(=O)c1ccc(NC(=O)c2ccc(C(=O)N(C)C)cc2)cc1)C(=O)O)C(=O)N(C)[C@@H](CCC(=O)O)C(=O)N1CCC[C@H]1CC(N)=O [Compound 679] ({X14-d(βAsp)}-[Dap]L[NMeE][β3hP]-NH2; N-terminus assumed)
0.28 nM | COc1ccc(C(=O)Nc2ccc(S(=O)(=O)N[C@H](CCC(=O)N[C@@H](CCN)C(=O)N[C@@H](CC(C)C)C(=O)N(C)[C@@H](CCC(=O)O)C(=O)N3CCC[C@H]3CC(N)=O)C(=O)O)cc2)cc1 [Compound 697] ({Phenylsulfonyl(4-anisamido)-d(γGlu)}-[Dab]L[NMeE][β3hP]-NH2; N-terminus assumed)
3.6 nM | CSCC[C@H](NC(=O)[C@H](CC(C)C)NC(=O)[C@H](C)NC(=O)[C@H](CC(=O)O)NC(=O)[C@H](CC(N)=O)NC(=O)CCCCNC(=O)c1ccc(Oc2ccc(C(=O)NCC(=O)O)cc2)cc1)C(=O)N1CCC[C@H]1C(N)=O [Compound 178] ({X19-Ava}-NDALMP-NH2; N-terminus assumed)
0.42 nM | CC(C)C[C@H](NC(=O)[C@H](CCN)NC(=O)CC[C@@H](NS(=O)(=O)c1ccc(NC(=O)c2ccc(OC(F)(F)F)cc2)cc1)C(=O)O)C(=O)N(C)[C@@H](CCC(=O)O)C(=O)N1CCC[C@H]1CC(N)=O [Compound 704] ({X1-d(γGlu)}-[Dab]L[NMeE][β3hP]-NH2; N-terminus assumed)
